Measured values taken from US10323027B2, “2,3-dihydro-4H-1,3-benzoxazin-4-one derivatives as modulators of cholinergic muscarinic M1 receptor” (Takeda Pharmaceutical Company Limited, priority 2015, dated 2019).
Structures can show the parent of a compound that is named as a salt.

Biological target: T1, human M1 receptor (hCHRM1) (Homo sapiens, UniProt P11229)
T1 construct: expressed in transfected cells
T1 sequence (P11229 1-460): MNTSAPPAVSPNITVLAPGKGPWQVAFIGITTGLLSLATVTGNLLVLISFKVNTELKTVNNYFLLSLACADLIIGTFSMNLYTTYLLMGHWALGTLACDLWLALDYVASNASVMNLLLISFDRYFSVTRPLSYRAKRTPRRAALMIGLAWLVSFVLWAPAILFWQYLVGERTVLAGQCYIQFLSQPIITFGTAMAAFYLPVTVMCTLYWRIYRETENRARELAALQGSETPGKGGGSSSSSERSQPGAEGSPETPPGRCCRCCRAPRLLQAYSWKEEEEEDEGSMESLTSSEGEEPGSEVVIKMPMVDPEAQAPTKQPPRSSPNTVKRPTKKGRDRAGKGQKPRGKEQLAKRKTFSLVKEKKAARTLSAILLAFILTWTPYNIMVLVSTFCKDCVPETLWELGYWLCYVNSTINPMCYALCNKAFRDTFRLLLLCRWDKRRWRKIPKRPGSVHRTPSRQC
Test: Measurement of M1 receptor positive allosteric modulator (M1PAM) activity, Ca2+ fluorescence by FDSS/μ cell (Experimental Example 2)
Assay type: cell-based
Details: for activity (%) at 10 μM: 10 μM test compound, 100% = acetylcholine 1 μM, 0% = DMSO; for EC50: inflection point of concentration-dependent curve, in presence of acetylcholine at EC20 (0.8-1.0 nM), CHO-K1 cells expressing hCHRM1, read-out: IP value
Procedure: Measurement of M1 Receptor Positive Allosteric Modulator (M1PAM) Activity
The activity of a test compound in the presence of acetylcholine at EC20 concentration (final concentration 0.8-1.0 nM), which affords an action corresponding to about 20% of the maximum activity, was measured as PAM activity. The method is as follows. CHO-K1 cells stably expressing a human M1 receptor (hCHRM1) were plated on a 384-well black clear bottom plate (BD Falcon) at 5,000 cells/well, and cultured in an incubator at 37° C., 5% CO2 for 1 day. The medium in the cell plate was removed, and a dye solution (prepared by adding Recording medium (DOJINDO LABORATORIES) to a final concentration of 1×concentration, Fluo-4 AM (DOJINDO LABORATORIES) to a final concentration of 2.5 μg/mL, Pluronic F127 (DOJINDO LABORATORIES) to a final concentration of 0.08%, and probenecid (DOJINDO LABORATORIES) to a final concentration of 1.25 mM to assay buffer (HBSS (Invitrogen), 20 mM HEPES (Invitrogen), 0.1% BSA (Wako Pure Chemical Industries, Ltd.))) was added at 30 μL/well. The cells were left standing in the incubator at 37° C., 5% CO2 for 30 min, and further left standing at room temperature for 30 min. A test compound prepared by diluting with assay buffer containing 3.2-4.0 nM acetylcholine was added at 10 μL/well, and the fluorescence was measured by FDSS/μ cell (Hamamatsu Photonics K.K.) for 1 min every 1 second. With the definition that the amount of change in the fluorescence on addition of acetylcholine (final concentration 1 μM) is 100% and that on addition of DMSO instead of a test compound is 0%, the activity (%) of the test compound was calculated, and the inflection point in the concentration-dependent curve of the test compound was calculated as IP values.

Row | SMILES | activity (%) at 10 μM [%] | EC50 [nM]
1 | Cc1c(Cc2ccc3nn(C)cc3c2)cc2c(c1C)OCN([C@H]1COCC[C@@H]1O)C2=O [Example 116, 1,5-anhydro-2,4-dideoxy-2-(7,8-dimethyl-6-((2-methyl-2H-indazol-5-yl)methyl)-4-oxo-2H-1,3-benzoxazin-3(4H)-yl)-L-threo-pentitol] | 96 | 7
2 | Cc1c(Cc2ccc(-c3ccn(C)n3)cc2)cc2c(c1F)OCN([C@H]1COCC[C@@H]1O)C2=O [Example 108, 1,5-anhydro-2,4-dideoxy-2-(8-fluoro-7-methyl-6-(4-(1-methyl-1H-pyrazol-3-yl)benzyl)-4-oxo-2H-1,3-benzoxazin-3(4H)-yl)-L-threo-pentitol] | 99 | 5.3
3 | Cc1cc2c(cc1Cc1ccc(-n3cccn3)nc1)C(=O)N([C@H]1COCC[C@@H]1O)CO2 [Example 103, 1,5-anhydro-2,4-dideoxy-2-(7-methyl-4-oxo-6-((6-(1H-pyrazol-1-yl)pyridin-3-yl)methyl)-2H-1,3-benzoxazin-3(4H)-yl)-L-threo-pentitol] | 103 | 15
4 | Cc1cc2c(cc1Cc1ccc(-n3cccn3)nc1)C(=O)N([C@H]1CCCC[C@@H]1O)CO2 (single isomer, unassigned) [Example 95] | 102 | 13
5 | CCn1ccc(-c2ccc(Cc3cc4c(c(F)c3C)OCN([C@H]3CCC[C@@H]3O)C4=O)cn2)n1 [Example 91, 6-((6-(1-ethyl-1H-pyrazol-3-yl)pyridin-3-yl)methyl)-8-fluoro-3-((1S,2S)-2-hydroxycyclopentyl)-7-methyl-2,3-dihydro-4H-1,3-benzoxazin-4-one] | 105 | 4
6 | Cc1c(Cc2ccc(-n3cccn3)nc2)cc2c(c1Cl)OCN([C@H]1CCC[C@@H]1O)C2=O (single isomer, unassigned) [Example 97, 8-chloro-3-(trans-2-hydroxycyclopentyl)-7-methyl-6-((6-(1H-pyrazol-1-yl)pyridin-3-yl)methyl)-2,3-dihydro-4H-1,3-benzoxazin-4-one (optical isomer: longer retention time)] | 99 | 
7 | Cc1c(Cc2ccc(-c3ccn(C)n3)nc2)cc2c(c1F)OCN([C@H]1CCCC[C@@H]1O)C2=O [Example 92, 8-fluoro-3-((1S,2S)-2-hydroxycyclohexyl)-7-methyl-6-((6-(1-methyl-1H-pyrazol-3-yl)pyridin-3-yl)methyl)-2,3-dihydro-4H-1,3-benzoxazin-4-one] | 101 | 3.4
8 | Cc1c(Cc2ccc(-n3cccn3)nc2)cc2c(c1C)OCN([C@H]1COCC[C@@H]1O)C2=O [Example 98, 1,5-anhydro-2,4-dideoxy-2-(7,8-dimethyl-4-oxo-6-((6-(1H-pyrazol-1-yl)pyridin-3-yl)methyl)-2H-1,3-benzoxazin-3(4H)-yl)-L-threo-pentitol] | 103 | 4.9
9 | COc1ccc(Cc2cc3c(c(Cl)c2C)OCN([C@H]2COCC[C@@H]2O)C3=O)cn1 [Example 109, 1,5-anhydro-2-(8-chloro-6-((6-methoxypyridin-3-yl)methyl)-7-methyl-4-oxo-2H-1,3-benzoxazin-3(4H)-yl)-2,4-dideoxy-L-threo-pentitol] | 97 | 5.7
10 | Cc1c(Cc2ccc(-n3cccn3)nc2)cc2c(c1Cl)OCN([C@H]1COCC[C@@H]1O)C2=O [Example 106, 1,5-anhydro-2-(8-chloro-7-methyl-4-oxo-6-((6-(1H-pyrazol-1-yl)pyridin-3-yl)methyl)-2H-1,3-benzoxazin-3(4H)-yl)-2,4-dideoxy-L-threo-pentitol] | 113 | 6.9
11 | Cc1c(Cc2ccc(-n3nccn3)cc2)cc2c(c1C)OCN([C@H]1COCC[C@@H]1O)C2=O [Example 142, 1,5-anhydro-2,4-dideoxy-2-(7,8-dimethyl-4-oxo-6-(4-(2H-1,2,3-triazol-2-yl)benzyl)-2H-1,3-benzoxazin-3(4H)-yl)-L-threo-pentitol] | 99 | 38
12 | Cc1cc(-c2ccc(Cc3cc4c(c(F)c3C)OCN([C@H]3CCC[C@@H]3O)C4=O)cn2)ccn1 [Example 90, 8-fluoro-3-((1S,2S)-2-hydroxycyclopentyl)-7-methyl-6-((2′-methyl-2,4′-bipyridin-5-yl)methyl)-2,3-dihydro-4H-1,3-benzoxazin-4-one] | 102 | 4
13 | Cc1cc(-c2ccc(Cc3cc4c(c(F)c3C)OCN([C@H]3CCC[C@@H]3O)C4=O)cc2)cnn1 [Example 105, 8-fluoro-3-((1S,2S)-2-hydroxycyclopentyl)-7-methyl-6-(4-(6-methylpyridazin-4-yl)benzyl)-2,3-dihydro-4H-1,3-benzoxazin-4-one hydrochloride] | 98 | 5.6
14 | Cc1c(Cc2ccc(-c3ccnc(F)c3)nc2)cc2c(c1F)OCN([C@H]1CCC[C@@H]1O)C2=O [Example 89, 8-fluoro-6-((2′-fluoro-2,4′-bipyridin-5-yl)methyl)-3-((1S,2S)-2-hydroxycyclopentyl)-7-methyl-2,3-dihydro-4H-1,3-benzoxazin-4-one] | 102 | 12
15 | Cc1c(Cc2ccc(-n3cccn3)nc2)cc2c(c1F)OCN([C@H]1COCC[C@@H]1O)C2=O [Example 102, 1,5-anhydro-2,4-dideoxy-2-(8-fluoro-7-methyl-4-oxo-6-((6-(1H-pyrazol-1-yl)pyridin-3-yl)methyl)-2H-1,3-benzoxazin-3(4H)-yl)-L-threo-pentitol] | 98 | 8.7
16 | Cc1nn(C)cc1-c1ccc(Cc2cc3c(c(F)c2C)OCN([C@H]2CCC[C@@H]2O)C3=O)cn1 [Example 93, 6-((6-(1,3-dimethyl-1H-pyrazol-4-yl)pyridin-3-yl)methyl)-8-fluoro-3-((1S,2S)-2-hydroxycyclopentyl)-7-methyl-2,3-dihydro-4H-1,3-benzoxazin-4-one] | 103 | 4.6
17 | CCc1cc2c(cc1Cc1ccc(-n3cccn3)cc1)C(=O)N([C@H]1COCC[C@@H]1O)CO2 [Example 107, 1,5-anhydro-2,4-dideoxy-2-(7-ethyl-4-oxo-6-(4-(1H-pyrazol-1-yl)benzyl)-2H-1,3-benzoxazin-3(4H)-yl)-L-threo-pentitol] | 99 | 5.5
18 | C=Cc1ccc(Cc2cc3c(c(C)c2C)OCN([C@H]2COCC[C@@H]2O)C3=O)cn1 [Example 110, 1,5-anhydro-2,4-dideoxy-2-(7,8-dimethyl-4-oxo-6-((6-vinylpyridine-3-yl)methyl)-2H-1,3-benzoxazin-3(4H)-yl)-L-threo-pentitol] | 99 | 4.8
